# Assays:
# [1] = system: HEK293ΔE12 cells; experiment: Relative cytotoxicity profiling (% cell number) in the N1ICD imaging assay; assay type: cell-based; conditions: 24 hours treatment
# Method: (§1) HEK293ΔE12 cells (HEK293 cells are engineered to stably express mouse Notch 1 cDNA coding for amino acid 1703-2183, NP_032740.3, with 23 amino acid signal peptide sequence, […] (SEQ ID NO:1), at its N-terminus) are plated at 5000 cells/well in 96 well plates, incubated in Dulbecco's Modified Eagle's Medium-high glucose with 5% fetal bovine serum at 37° C., 5% CO2 for 24 hours. Cells are treated with test compound, dosing at 10 points of 1:3 dilutions across the range of 1000 nM to 0.05 nM, and with final dimethyl sulfoxide (DMSO) concentration at 0.2%. […] Plates are scanned with ACUMEN EXPLORER™ Laser-scanning fluorescence microplate cytometer (TTP LABTECH LTD) to measure total cell nuclear count/well and total nuclear area/well with fluorescence at 655 nm-705 nm (emission of DNA bound propidium iodide) and fluorescence of antibody binding to N1ICD in nuclear region at 505 nm-530 nm. The main assay output is a ratio of total fluorescence of nuclear N1ICD to total nuclear area, the normalized nuclear N1ICD signal. […] Concentration response and the IC50 are determined by curve fitting to a four parameter logistic for the nuclear N1ICD signal, while the % cell number is plotted in the same graph for cytotoxicity profiling.
# [2] = In vivo pharmacokinetics, excretion and metabolism in rats
# Method: Compound 1 was evaluated in vivo in bile-duct cannulated rats to study systemic pharmacokinetics (PK), excretion, and metabolism. In vivo 51% of the IV dose was excreted unchanged, predominately in the urine, with low (2% of parent) systemic exposure to an active N-dealkylated metabolite, 4,4,4-trifluoro-N-[(1S)-1-methyl-2-oxo-2-[[(7S)-6-oxo-5,7-dihydropyrido[2,3-d][3]benzazepin-7-yl]amino]ethyl]butanamide.
# [3] = Atropisomer equilibrium in solution (1H NMR and LC-MS); assay type: physicochemical; conditions: ambient temperature, after 24 hours
# Method: In aqueous solutions, 8-9% of atropisomer 2 (minor atropisomer) is detected by ^1H NMR and LC-MS in equilibrium with atropisomer 1 (major atropisomer) at ambient temperature after 24 hours. In organic solvents, at ambient temperature after 24 hours, approximately 1-2% of atropisomer 2 is detected by ^1H NMR and LC-MS in equilibrium with atropisomer 1. Although detectable by ^1H NMR and LC-MS analysis, atropisomer 2 is not isolable.
# [4] = system: N1ICD cleavage (Notch1); experiment: Inhibition of N1ICD cleavage in human tumor cell lines (N1ICD ELISA); assay type: cell-based; conditions: 24 hours treatment
# Text: To evaluate potency of Compound 1 in its ability to inhibit N1ICD cleavage, several human tumor cell lines are utilized. A2780 is a human ovarian cell line (Sigma-Aldrich, No. 93112519); MIA PaCa-2 is a human pancreas cell line (ATCC No. CRL-1420); BxPC-3 is a human pancreas cell line (ATCC No. CRL-1687); SW480 is a human colorectal cell line (ATCC No. CCL-228); HCT 116 is a human colorectal cell line (ATCC No. CCL-247); DLD-1 is a human colorectal cell line (ATCC No. CCL-221); MDA-MB-231 is a human mammary gland cell line (ATCC No. HTB-26); U-87 MG is a human glioblastoma cell line (ATCC No. HTB-14); A375 is a human malignant melanoma cell line (ATCC No. CRL-1619); CCRF-CEM is a human acute lymphoblastic leukemia (ALL) cell line (ATCC No. CCL-119); SUP-T1 is a human T-cell lymphoblastic leukemia cell line (ATCC No. CRL-1942); K-562 is a human chronic myelogenous leukemia (CML) cell line characterized by the presence of a fusion transcript comprised of the Bcr and Abl1 genes (ATCC No. CCL-243); Jurkat, Clone E6-1 is a human acute T-cell leukemia cell line (ATCC No. TIB-152); MOLT-3 is a human acute lymphoblastic leukemia (ALL) cell line (ATCC No. CRL-1552); MOLT-4 is a human acute lymphoblastic leukemia (ALL) cell line (ATCC No. CRL-1582); HEL 92.1.7 is a human erythroleukemia cell line (ATCC No. TIB-180). Each of the cell lines are obtained from the American Type Culture Collection (ATCC) at the ATCC number stated, except the A2780 cell line which is obtained from Sigma-Aldrich at the stated catalog number. The cells are grown in their respective culture media at 37° C. in 5% CO2 with humidity in the atmosphere. Cell culture media for A2780 human ovarian carcinoma is RPMI-1640 (without phenol red) with 2.05 mM L-glutamine, added 2 mM L-glutamine, 0.01 mg/ml insulin and 10% fetal bovine serum (FBS); for HCT 116 human colorectal carcinoma is McCoy's 5A with 1.5 mM L-glutamine, 0.075% Na-bicarbonate and 10% FBS; for SW480 human colorectal carcinoma is RPMI-1640 with 2.05 mM L-glutamine, 20 mM HEPES and 10% FBS; U-87 MG human glioblastoma is Minimal Essential Medium/Earl's Balanced Salt Solution with 2 mM L-glutamine, 0.1 mM Non-essential amino acids (NEAA), 1 mM Na-pyruvate, and 10% FBS; for MIA PaCa-2 human pancreatic carcinoma is Dulbecco's Modified Eagles Medium (DMEM) without Na-pyruvate, with high glucose ([…]), 4 mM L-glutamine, 2.5% horse serum and 10% FBS; for K-562 human CML is DMEM with high glucose ([…]), 4 mM L-glutamine, 10 mM HEPES, 0.1 mM NEAA, 1 mM Na-pyruvate and 10% FBS; for Jurkat, Clone E6-1 human acute T cell leukemia is RPMI-1640 with 2.05 mM L-glutamine, 2.5 g/L glucose, 10 mM HEPES, 1 mM Na-pyruvate, 0.075% Na-bicarbonate and 10% FBS; for A-375 human malignant melanoma and MDA-MB-231 human breast adenocarcinoma is DMEM with high glucose ([…]), 4 mM L-glutamine and 10% FBS; for BxPC-3 human pancreatic adenocarcinoma, DLD-1 human colorectal adenocarcinoma, SUP-T1 human lymphoblastic leukemia, MOLT-3 human ALL, Molt-4 human ALL, CCRF-CEM human ALL, and HEL 92.1.7 human erythroleukemia is RPMI-1640 with 2.05 mM L-glutamine, 2.5 g/L glucose, 20 mM HEPES, 1 mM Na-pyruvate, and 10% FBS. When 80-90% confluent, cells are treated with compound, dosing at 10 points of 1:3 dilutions across the range of 50 nM to 0.0025 nM, and with final dimethyl sulfoxide (DMSO) concentration at 0.01%. […]
# [5] = Metabolism by liver microsomes optimized for oxidative CYP450 metabolism; assay type: in vitro ADME
# [6] = In vivo metabolism and excretion in dogs
# [7] = system: mouse Notch 1 (nuclear N1ICD signal); experiment: Notch1 N1ICD Nuclear Accumulation Cellular Imaging Assay; assay type: cell-based; conditions: HEK293ΔE12 cells, 24 hours treatment, n=7
# Method: as §1
# [8] = system: major CYP450 enzymes; experiment: CYP450 inhibition and induction; assay type: in vitro ADME
compound,measurement,setting,value
"C[C@H](NC(=O)CCC(F)(F)F)C(=O)N[C@@H]1C(=O)N(CCO)c2ncccc2-c2ccccc21 [Compound 1, 4,4,4-trifluoro-N-[(1S)-2-[[(7S)-5-(2-hydroxyethyl)-6-oxo-7H-pyrido[2,3-d][3]benzazepin-7-yl]amino]-1-methyl-2-oxo-ethyl]butanamide]",concentration up to which cell number is not affected (cytotoxicity profiling),[1],> 1000 nM
same,dose excreted unchanged,"[2]; bile-duct cannulated rats, IV dose, predominately in the urine",51%
same,additional circulating metabolites (profiling of rat plasma),[2]; rat plasma,absence of additional circulating metabolites
same,major oxidative metabolites in circulation or excreta,[2]; rats in vivo,not observed
same,atropisomer 2 (minor atropisomer) in equilibrium with atropisomer 1,[3]; aqueous solutions,8-9%
same,atropisomer 2 (minor atropisomer) in equilibrium with atropisomer 1,[3]; organic solvents,1-2%
same,IC50,[4]; A2780 cells,1.03 nM
same,IC50,[4]; A-375 cells,0.48 nM
same,IC50,[4]; BxPC-3 cells,0.39 nM
same,IC50,[4]; CCRF-CEM cells,0.76 nM
same,IC50,[4]; DLD-1 cells,0.98 nM
same,IC50,[4]; HCT 116 cells,0.72 nM
same,IC50,[4]; HEL 92.1.7 cells,0.23 nM
same,IC50,[4]; Jurkat cells,5.95 nM
same,IC50,[4]; K-562 cells,0.74 nM
same,IC50,[4]; MDA-MB-231 cells,0.5 nM
same,IC50,[4]; MIA PaCa-2 cells,0.71 nM
same,IC50,[4]; MOLT-3 cells,0.61 nM
same,IC50,[4]; MOLT-4 cells,0.74 nM
same,IC50,[4]; SUP-T1 cells,1.24 nM
same,IC50,[4]; SW480 cells,0.1 nM
same,IC50,[4]; U-87 MG cells,0.28 nM
same,metabolism by liver microsomes,[5],not metabolized to any appreciable extent
same,clearance by excretion of parent compound,[6]; bile-duct intact dogs,appreciable clearance by excretion of parent compound
same,major circulating active metabolites,[6]; bile-duct intact dogs,absence of major circulating active metabolites
same,major oxidative metabolites in circulation or excreta,[6]; dogs in vivo,not observed
same,IC50,[7],0.41 nM
same,inhibition or induction of the major CYP450 enzymes,[8],not an inhibitor or inducer

# Source: patent US8569286B2, “Notch pathway signaling inhibitor compound” (Eli Lilly and Company, priority 2011, dated 2013)
